From patent publication US12440479B2, “Prevention or treatment of chronic organ injury” (GEORG-AUGUST-UNIVERSITAET GOETTINGEN, STIFTUNG …, priority 2018, dated 2025)

What was measured:
TEC cultures = test: RT2 Profiler PCR arrays (transcription factor, hypoxia, drug metabolism) in TECs; type: cell-based
Method: To compare qPCR-validated cDNA samples after FK506 treatment and DMSO control, gene expression profiling was performed using commercially available plates (PAHS-075Z/PAMM-002Z/PAMM032Z, SABiosciences, Qiagen, Hilden, Germany). HK-2 cells were plated in 6 well culture plates as previously described and stimulated with 150 ng/mL FK506, MCT cells with 200 pM FK506. After 6 hours, cells were dissolved and RNA was isolated, digested and reverse transcripted. The 25 ng cDNA equivalent of total RNA was added to the reaction mixture containing diluted 2× RT^2 SYBR Green ROX qPCR Mastermix (Qiagen, Hilden, Germany) in a final volume of 25 μL for each well of the RT2 Profiler PCR. PCR reactions were performed under recommended thermal cycling conditions (10 min at 95° C., 15 s at 95° C., 1 min at 60° C. for 40 cycles). To verify PCR specificity, dissociation curve analysis was generated. Relative levels of mRNA expression were normalized in all the samples with expression levels of included housekeeping genes, and data analysis was done using an web-based analysis software provided by SABiosciences. Transcription factor binding sites within the ALK3 proximal promoter was performed 5000 basepairs relative to transcriptional start site using […] database (98).

[1] = test system: chronically injured livers; test: CCl4-induced liver fibrosis; type: in vivo, mice; settings: 10 mg/kg subcutaneously per day starting one day prior
Method: Eight to twelve weeks-old C57BL/6 mice were intraperitoneally injected with 0.25 (first injection), 0.5 (second injection) and 1 mL/kg body weight CCI4 (25% v/v dissolved in sterile oil) twice a week (63). Mice were sacrificed after 42 days for further analyses. Mice were injected subcutaneously with 10 mg/kg body weight per day GPI-1046 (Santa Cruz Biotechnology, Dallas, USA) in DMSO once daily starting one day prior of surgery, control mice received equivalent volume of vehicle DMSO. For oral administration, GPI-1046 stock solution was diluted in glucose-water (5%) and orally applied on the basis of an average drinking volume of 3 mL and a body weight of 20 g per mouse. Three days after challenging with UUO, mice were treated orally with either vehicle buffer glucose (5%) or 30 mg/kg body weight per day GPI-1046, respectively. […] For morphometric analysis of interstitial fibrosis, fibrotic areas were assessed by using cellSens (Olympus, Tokyo, Japan) software. Ten visual fields were selected randomly for each MTS stained section at 200× magnification and the relative interstitial fibrotic area was evaluated by using a 10 mm2 graticule. Tubular damage was analysed after PAS stain and graded according to a semi-quantitative score of 0 to 3 (0: normal, 1: mild, 2: moderate, 3: severe) at 400× magnification in a total number of 100 tubules per section (158). […]

For `C=CC[C@@H]1/C=C(\C)C[C@H](C)C[C@H](OC)[C@H]2O[C@@](O)(C(=O)C(=O)N3CCCC[C@H]3C(=O)O[C@H](/C(C)=C/[C@@H]3CC[C@@H](O)[C@H](OC)C3)[C@H](C)[C@@H](O)CC1=O)[C@H](C)C[C@@H]2OC` [FK506, tacrolimus], the “induction of transcriptional factors AR, ARNT, CEPB, CREB1, GATA3 and MAX (array)” value (TEC cultures; TEC cultures upon FK506 exposure) was “at least 2 fold” and the “pathways involved in hypoxic signaling or drug metabolism (mRNA expression arrays)” value (TEC cultures; TECs exposed to FK506) was “did not markedly induce”.

`CCC(C)(C)C(=O)C(=O)N1CCC[C@H]1C(=O)OCCCc1cccnc1` [GPI-1046, 3-(3-pyridyl)-1-propyl-(2S)-1-(3,3-dimethyl-1,2-dioxopentyl)-2-pyrrolidinedine carboxylate] was tested, and the “ALK3-dependent canonical BMP signaling responses” value [1] was “equally effective” and the protection from fibrogenesis [1] was “equally effective”.
